Key:
[1] = test system: RNA amplicon (NASBA), 16S RNA of Mycobacterium tuberculosis; assay: Labelling of RNA amplicon without interim purification, detection by hybridisation on DNA chip; conditions: label 2 mM, 3 mM HCl, no purification
Experimental: In a 1 mL tube, the following are mixed: • 5 μL of 8 mM label solution (96/4 DMSO/Methanol).
The nucleic acids thus labelled are not purified, but are hybridised directly.
The labelled nucleic acids are transferred without purification into 480 μL of hybridisation buffer. The samples are hybridised on the DNA chips in the same way as for the previous example.

[2] = Stability in the dry form at +4° C. after lyophilisation (HPLC purity over time); conditions: 250 mM in 10 mM Tris HCl pH 7.5 and 10% trehalose, lyophilised one night
[3] = test system: RNA amplicon (NASBA), 16S RNA of Mycobacterium tuberculosis; conditions: label 2.5 mM, hybridisation at 45° C. up to 24 hrs
Experimental: The solution is mixed by vortex then incubated for 10 minutes at 65° C.
The labelled nucleic acids were purified on a QiaQuick (PCR purification kit, Qiagen) column using the purification protocol recommended by the manufacturer. The elution volume is 100 μL.
After purification, the labelled nucleic acids are transferred into 400 of hybridisation buffer. The samples are hybridised on the DNA chips designed for the analysis of the “GenBank” M20940 sequence of the 16S RNA of Mycobacterium tuberculosis. […] The hybridisation stages were performed by injecting. 80 μL of the hybridisation mixture into the chip then maintaining this in a hybridisation oven at 45° C. for 0.5 hour, 2 hours, 6.5 hours or 24 hours.
300 μL of pure water; 300 μL of 100 mM Tris buffer pH 7/1 M NaCl/0.05% Tween 20/0.005% antifoamant; 6 μL of BSA (50 mg/mL); 6 μL of SA-PE (300 μg/mL).
The reading of the fluorescence emitted at the surface of the DNA chip after labelling and hybridisation and the generation of data in terms of signal intensity and percentage homology are performed with the reading systems and software supplied by Affymetrix. The reading system supplies signal and background noise intensities expressed in rfu (“relative fluorescence unit”). The percentage homology is given relative to a reference sequence which in this case is the sequence of Mycobacterium tuberculosis.

[4] = Stability in a liquid medium at ambient temperature (HPLC purity over time); format: physicochemical; conditions: 125 mM in 96/4 DMSO/methanol, ambient temperature (22° C.), at 10 days

Substance | background noise compared to BBP [1] | percentage homology [1] | specific signals (specific hybridisation) compared to BBP [1] | stability to lyophilisation [2] | stability of labelled amplicons in the course of hybridisation [3] | purity of the initial compound [4]
Pyridine Diazo Biotin [PyDB] | reduced background noise | higher | improved | perfectly stable | perfectly stable | 
[Bio-EG3]2-PDAM [BBP, reference compound] |  | relatively low |  |  |  | < 10%
